Assays:
COX-1 = target: T1, COX-1 (Ovis aries, UniProt P05979); assay: COX-1 enzyme assay, PGE2 by LC-MS-MS, single point; assay type: biochemical; conditions: read-out: CX1 ^f
T1 sequence (P05979 25-600): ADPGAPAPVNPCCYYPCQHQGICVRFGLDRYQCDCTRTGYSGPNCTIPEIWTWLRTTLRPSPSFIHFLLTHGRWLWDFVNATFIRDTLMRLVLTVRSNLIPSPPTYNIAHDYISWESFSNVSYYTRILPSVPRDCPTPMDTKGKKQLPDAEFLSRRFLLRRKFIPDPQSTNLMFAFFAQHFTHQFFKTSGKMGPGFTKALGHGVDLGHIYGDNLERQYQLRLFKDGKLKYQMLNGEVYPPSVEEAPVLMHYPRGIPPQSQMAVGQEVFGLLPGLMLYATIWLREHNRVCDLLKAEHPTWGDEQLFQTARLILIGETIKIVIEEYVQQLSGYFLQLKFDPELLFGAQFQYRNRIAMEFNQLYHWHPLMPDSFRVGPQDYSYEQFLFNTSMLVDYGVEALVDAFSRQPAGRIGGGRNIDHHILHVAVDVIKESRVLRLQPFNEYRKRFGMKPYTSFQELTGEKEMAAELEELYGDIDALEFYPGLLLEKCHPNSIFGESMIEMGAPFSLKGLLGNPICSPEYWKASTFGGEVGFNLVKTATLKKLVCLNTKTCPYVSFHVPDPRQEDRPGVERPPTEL

aromatase (CYP19) = target: T2, aromatase (CYP19) (Homo sapiens, UniProt P11511); assay: CYP19 enzyme, dibenzylfluorescein fluorescence assay; assay type: biochemical
T2 sequence (P11511 1-503): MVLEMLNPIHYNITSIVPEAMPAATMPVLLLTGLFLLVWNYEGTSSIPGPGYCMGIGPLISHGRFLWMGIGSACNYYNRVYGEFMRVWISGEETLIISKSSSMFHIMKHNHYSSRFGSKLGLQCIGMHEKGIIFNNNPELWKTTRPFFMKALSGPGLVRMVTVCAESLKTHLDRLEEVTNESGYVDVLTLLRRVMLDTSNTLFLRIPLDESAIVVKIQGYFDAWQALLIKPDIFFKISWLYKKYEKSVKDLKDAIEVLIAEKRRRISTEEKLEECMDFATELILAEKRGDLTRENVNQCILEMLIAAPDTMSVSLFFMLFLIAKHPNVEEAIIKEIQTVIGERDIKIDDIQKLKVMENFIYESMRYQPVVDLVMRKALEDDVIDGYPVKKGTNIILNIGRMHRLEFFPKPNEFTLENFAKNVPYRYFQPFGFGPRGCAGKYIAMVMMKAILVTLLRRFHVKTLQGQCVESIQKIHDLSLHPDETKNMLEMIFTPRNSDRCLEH

Row | inhibition at 10 µg/mL (COX-1) [%] | IC50 (aromatase (CYP19)) [µM] | Compound
1 | 52 | – | CC(=O)OC[C@H]1OC(O[C@@H]2[C@@H](OCCC(=O)C(C)C)[C@@H](O)[C@H](Oc3c(-c4ccc(O)cc4)oc4cc(O)cc(O)c4c3=O)O[C@H]2C)[C@H](O)[C@@H](O)[C@@H]1O (stereo partly drawn) [compound 1, kaempferol 3-O-[(6‴-O-acetyl-β-D-glucopyranosyl)-(1→4)-3″-O-(4⁗, 4⁗-dimethyl-3-oxo-butyl)-α-L-rhamnopyranoside]]
2 | – | 15.5 | CC(=O)OC[C@H]1O[C@@H](O[C@@H]2[C@@H](O)[C@@H](O)[C@H](Oc3c(-c4ccc(O)cc4)oc4cc(O)cc(O)c4c3=O)O[C@H]2C)[C@H](O)[C@@H](O)[C@@H]1O [compound 4, multiflorin A]

— PMC2866494 (Phytochemistry, 2010)
